Each structure is given as a SMILES string.

The test system of one assay is ADP-induced platelet aggregation (ADP诱导的血小板聚集). The experiment in a line: Effect of compounds of formula I on ADP-induced platelet aggregation (rats dosed orally, turbidimetric method). The conditions noted are these: Platelet; male Wistar rat, 10 mg/kg oral gavage, blood taken 2 h after dosing, inducer ADP (final concentration 5 μM), turbidimetry, 37℃; vs control; read-out: inhibition rate. It is filed as in vivo.
What is called inhibition is the drop in the measured response relative to a control, in per cent. Take `O=C(NN=Cc1ccc(-c2ccc(Cl)cc2)o1)C(c1cccc(Cl)c1)N1CCc2sccc2C1` (stereo not drawn) [化合物8, α,α-[(3-氯苯基)-(4,5,6,7-四氢噻吩并[3,2-c]吡啶-5-基)]-N′-[[5-(4-氯苯)呋喃-2-基]甲叉基]乙酰肼]: the inhibition at 10 mg/kg came out at 64.4%. Same read-out and setting: the value for `O=C(NN=C1CCCc2ccccc21)C(c1ccc(Cl)cc1)N1CCc2sccc2C1` (stereo not drawn) [化合物12, α,α-[(4-氯苯基)-(4,5,6,7-四氢噻吩并[3,2-c]吡啶-5-基)]-N′-(α-四氢萘叉基)乙酰肼] was 35.3%; that for `O=C(NN=Cc1ccco1)C(c1cccc(F)c1)N1CCc2sccc2C1` (stereo not drawn) [化合物9, α,α-[(3-氟苯基)-(4,5,6,7-四氢噻吩并[3,2-c]吡啶-5-基)]-N′-[(呋喃-2-基)甲叉基]乙酰肼] was 28.6%; that for `O=C(NN=Cc1cccc([N+](=O)[O-])c1)C(c1ccc(Cl)c(Cl)c1)N1CCc2sccc2C1` (stereo not drawn) [化合物7, α,α-[(3,4-二氯苯基)-(4,5,6,7-四氢噻吩并[3,2-c]吡啶-5-基)]-N′-[(3-硝基苯基)甲叉基]乙酰肼] was 23.3%. With `O=C(NN=Cc1ccccc1O)C(c1cccc(F)c1)N1CCc2sccc2C1` (stereo not drawn) [化合物5, α,α-[(3-氟苯基)-(4,5,6,7-四氢噻吩并[3,2-c]吡啶-5-基)]-N′-[(2-羟基苯基)甲叉基]乙酰肼], the inhibition at 10 mg/kg is 33.5%. The same measure, in the same setting: then `NNC(=O)C(c1ccc(F)cc1)N1CCc2sccc2C1` (stereo not drawn) [化合物1, α,α-[(4-氟苯基)-(4,5,6,7-四氢噻吩并[3,2-c]吡啶-5-基)]乙酰肼], with 48.2%; and `O=C(NN=C1CCCCC1)C(c1cccc(Cl)c1)N1CCc2sccc2C1` (stereo not drawn) [化合物11, α,α-[(3-氯苯基)-(4,5,6,7-四氢噻吩并[3,2-c]吡啶-5-基)]-N′-(环己叉基)乙酰肼], with 43.1%. `Cc1ccc(C=NNC(=O)C(c2ccc(Cl)cc2)N2CCc3sccc3C2)cc1` (stereo not drawn) [化合物4, α,α-[(4-氯苯基)-(4,5,6,7-四氢噻吩并[3,2-c]吡啶-5-基)]-N′-[(4-甲基苯基)甲叉基]乙酰肼]: the inhibition at 10 mg/kg was 34.3%. For `COc1ccc(C=NNC(=O)C(c2cccc(F)c2)N2CCc3sccc3C2)cc1` (stereo not drawn) [化合物6, α,α-[(3-氟苯基)-(4,5,6,7-四氢噻吩并[3,2-c]吡啶-5-基)]-N′-[(4-甲氧基苯基)甲叉基]乙酰肼], the inhibition at 10 mg/kg came out at 32.5%.

With `CC(C)=NNC(=O)C(c1ccc(Cl)cc1)N1CCc2sccc2C1` (stereo not drawn) [化合物2, α,α-[(4-氯苯基)-(4,5,6,7-四氢噻吩并[3,2-c]吡啶-5-基)]-N′-(二甲基甲叉基)乙酰肼], the inhibition at 10 mg/kg amounted to 58.8%. Still for that read-out and setting: the value for `O=C(NN=Cc1ccccc1Cl)C(c1cccc(Cl)c1)N1CCc2sccc2C1` (stereo not drawn) [化合物3, α,α-[(3-氯苯基)-(4,5,6,7-四氢噻吩并[3,2-c]吡啶-5-基)]-N′-[(2-氯苯基)甲叉基]乙酰肼] was 18.2%; that for `CCCCc1nc(Cl)c(C=NNC(=O)C(c2cccc(Cl)c2)N2CCc3sccc3C2)[nH]1` (stereo not drawn) [化合物10, α,α-[(3-氯苯基)-(4,5,6,7-四氢噻吩并[3,2-c]吡啶-5-基)]-N′-[[(2-正丁基-4-氯-咪唑-5-基)甲叉基]乙酰肼] was 39%.

Staying with this assay, now noted: male Wistar rat, 10 mg/kg oral gavage, blood taken 2 h after dosing, inducer ADP (final concentration 5 μM), turbidimetry, 37℃; control 54.8±5.8.
Take `O=C(NN=Cc1ccc(-c2ccc(Cl)cc2)o1)C(c1cccc(Cl)c1)N1CCc2sccc2C1` (stereo not drawn) [化合物8, α,α-[(3-氯苯基)-(4,5,6,7-四氢噻吩并[3,2-c]吡啶-5-基)]-N′-[[5-(4-氯苯)呋喃-2-基]甲叉基]乙酰肼]: the maximum aggregation stood at 38.7±10.9. Compound `O=C(NN=C1CCCc2ccccc21)C(c1ccc(Cl)cc1)N1CCc2sccc2C1` (stereo not drawn) [化合物12, α,α-[(4-氯苯基)-(4,5,6,7-四氢噻吩并[3,2-c]吡啶-5-基)]-N′-(α-四氢萘叉基)乙酰肼] showed a maximum aggregation of 36.2±7.4. On the same count and under the same terms, the value for `O=C(NN=Cc1ccco1)C(c1cccc(F)c1)N1CCc2sccc2C1` (stereo not drawn) [化合物9, α,α-[(3-氟苯基)-(4,5,6,7-四氢噻吩并[3,2-c]吡啶-5-基)]-N′-[(呋喃-2-基)甲叉基]乙酰肼] was 41.0±13.4.

In turn, `O=C(NN=Cc1cccc([N+](=O)[O-])c1)C(c1ccc(Cl)c(Cl)c1)N1CCc2sccc2C1` (stereo not drawn) [化合物7, α,α-[(3,4-二氯苯基)-(4,5,6,7-四氢噻吩并[3,2-c]吡啶-5-基)]-N′-[(3-硝基苯基)甲叉基]乙酰肼] showed a maximum aggregation of 36.0±9.3. The compound `O=C(NN=Cc1ccccc1O)C(c1cccc(F)c1)N1CCc2sccc2C1` (stereo not drawn) [化合物5, α,α-[(3-氟苯基)-(4,5,6,7-四氢噻吩并[3,2-c]吡啶-5-基)]-N′-[(2-羟基苯基)甲叉基]乙酰肼] displayed a maximum aggregation of 38.7±10.6.

`NNC(=O)C(c1ccc(F)cc1)N1CCc2sccc2C1` (stereo not drawn) [化合物1, α,α-[(4-氟苯基)-(4,5,6,7-四氢噻吩并[3,2-c]吡啶-5-基)]乙酰肼] gave a maximum aggregation of 28.4±8.1. On the same count and under the same terms, then `O=C(NN=C1CCCCC1)C(c1cccc(Cl)c1)N1CCc2sccc2C1` (stereo not drawn) [化合物11, α,α-[(3-氯苯基)-(4,5,6,7-四氢噻吩并[3,2-c]吡啶-5-基)]-N′-(环己叉基)乙酰肼], with 31.2±12.1; and `Cc1ccc(C=NNC(=O)C(c2ccc(Cl)cc2)N2CCc3sccc3C2)cc1` (stereo not drawn) [化合物4, α,α-[(4-氯苯基)-(4,5,6,7-四氢噻吩并[3,2-c]吡啶-5-基)]-N′-[(4-甲基苯基)甲叉基]乙酰肼], with 36.0±6.9. Take `COc1ccc(C=NNC(=O)C(c2cccc(F)c2)N2CCc3sccc3C2)cc1` (stereo not drawn) [化合物6, α,α-[(3-氟苯基)-(4,5,6,7-四氢噻吩并[3,2-c]吡啶-5-基)]-N′-[(4-甲氧基苯基)甲叉基]乙酰肼]: the maximum aggregation stood at 33.9±12.3. The same measure, in the same setting: then `COC(=O)[C@H](c1ccccc1Cl)N1CCc2sccc2C1` [硫酸氯吡格雷, reference compound], with 9.1±3.5. The same measure, in the same setting: the value for `CC(C)=NNC(=O)C(c1ccc(Cl)cc1)N1CCc2sccc2C1` (stereo not drawn) [化合物2, α,α-[(4-氯苯基)-(4,5,6,7-四氢噻吩并[3,2-c]吡啶-5-基)]-N′-(二甲基甲叉基)乙酰肼] was 22.6±3.9; that for `O=C(NN=Cc1ccccc1Cl)C(c1cccc(Cl)c1)N1CCc2sccc2C1` (stereo not drawn) [化合物3, α,α-[(3-氯苯基)-(4,5,6,7-四氢噻吩并[3,2-c]吡啶-5-基)]-N′-[(2-氯苯基)甲叉基]乙酰肼] was 44.8±11.1; that for `CCCCc1nc(Cl)c(C=NNC(=O)C(c2cccc(Cl)c2)N2CCc3sccc3C2)[nH]1` (stereo not drawn) [化合物10, α,α-[(3-氯苯基)-(4,5,6,7-四氢噻吩并[3,2-c]吡啶-5-基)]-N′-[[(2-正丁基-4-氯-咪唑-5-基)甲叉基]乙酰肼] was 42.9±12.6.

The values are drawn from patent CN101260112A, “含噻吩并[3.2-c]吡啶的乙酰肼衍生物及其制备方法和用途” (Tianjin Institute of Pharmaceutical Research Co Ltd, priority 2008, dated 2008).
